Assay [1] has as its system bladder. The note with it: PGE2 given to healthy women; cited from earlier work.
Assay [2] deals with bladder. Kind of assay: Single-fill cystometry with intravesical PGE2 (model of OAB) in anesthetized rats. It is filed as in vivo, Female Wistar rats. The conditions noted are these: intravesical 100 μM PGE2 vs saline control. Here is the method: Female Wistar rats (n=18) weighing between 237 and 296 g were anesthetized with urethane (1.2 g/kg SC, supplemented as necessary). Body temperature was monitored using an esophageal temperature probe and maintained at 36-38° C. with a water blanket. Heart rate and arterial blood oxygen saturation levels were monitored using a pulse oximeter (Nonin Medical Inc., 2500 A VET).
For cystometrogram (CMG) measurements, the bladder was exposed via a midline abdominal incision. A PE-90 catheter, the tip of which was heated to create a collar, was inserted into the bladder lumen through a small incision in the apex of the bladder dome and secured with a 6-0 silk suture. The abdominal wall was closed in layers with 3-0 silk suture. […]
The bladder was filled continuously with physiological saline at room temperature (2-8 ml/hr) using an infusion pump with an open urethra for at least 45 minutes during post-surgical recovery. The bladder was subsequently emptied and cystometrograms (CMGs) recorded. […] Voided and residual volumes were recorded and used to calculate bladder capacity and voiding efficiency. […] For these trials, voiding efficiency was calculated as the first voided volume divided by the bladder capacity, and “reflex” voiding efficiency was calculated as the sum of the two voided volumes divided by the bladder capacity. […]

The test system of assay [3] is bladder. The conditions noted are these: intravesical PGE2, rats; cited from earlier work.

Structures are written as SMILES. Entries after “also recorded” stand apart in the source; their conditions may differ. Where two headings read alike, the source gives them in different places.

As to `CCCCC[C@H](O)/C=C/[C@H]1[C@H](O)CC(=O)[C@@H]1C/C=C\CCCC(=O)O` [PGE2, Prostaglandin E2], the Bladder capacity result with bladder [1] is given as “reduced bladder capacities”; in the assay on bladder [2] (urethane-anesthetized, n=9, p=0.02) it was “consistently reduced bladder capacity; also recorded: decreased bladder capacity; also recorded: Bladder capacity decreased”; with bladder [3], “reduces bladder capacity”. In addition, the Urgency sensation result in the assay with bladder [1] was “a strong urgency sensation”. For the same compound, in the assay with bladder [2] (n=9, p<0.001), the Voiding efficiency entry is given as “increased voiding efficiency; also recorded: Voiding efficiency increased”.
